Tested on: intracoronary thrombus
Assay: Local delivery of urokinase from hydrogel-coated balloon during balloon angioplasty in patients
Format: in vivo
Details: all 11 patients; balloon immersed in 50,000 units/ml; pressure in excess of 2 atmospheres; 1-2 inflations, 1-5 minutes
Procedure: To evaluate the efficacy of local delivery of urokinase during balloon angioplasty in treating intracoronary thrombus according to the invention, 11 patients were treated with hydrogel-coated balloons which had been immersed in a concentrated solution of urokinase (50,000 units/ml). Eight patients presented with acute myocardial infarctions, while the remaining three had unstable angina. Five patients had received intravenous thrombolytic therapy, including systemic thrombolysis. Conventional balloon angioplasty was initially performed in 9 of the 11 patients and was complicated either by acute thrombotic closure (n=7) or slow antegrade flow with the appearance of intracoronary thrombus (n=2). The remaining 2 patients had coronary stenoses with angiographic evidence of thrombus, but were not initially treated with conventional angioplasty.

## urokinase
  outcome of balloon dilatation with urokinase-impregnated, hydrogel-coated balloon: reversal of abrupt closure and dissolution of intracoronary thrombus

Reference: patent US6409716B1, “Drug delivery” (Scimed Life Systems, Inc., priority 1989, dated 2002)
